Measurements reported in patent US11192890B2, “FGFR kinase inhibitors and pharmaceutical uses” (AUCKLAND UNISERVICES LIMITED, priority 2017, dated 2021).
Read-outs that look alike come from different tables or passages of the source.

Experiments:
FGFR2 = molecular target: T1, FGFR2 (Homo sapiens, UniProt P21802); assay: Isolated enzyme FRET-based Z-Lyte kinase inhibition assay; type: biochemical; settings: means from 3 independent experiments; read-out: Isolate Enzyme Inhibition IC50, FGFR2
T1 construct: purchased Invitrogen
Method: (§1) FGFR1-4 and the Z-Lyte Kinase Assay Kit were purchased from Invitrogen. The concentration gradients from 5.1×10^−11 to 1.0×10^−6 mol/L were used for all the test compounds. The experiments were performed according to the instructions of the manufacturer.
(§2) FGFR1-4 isolated enzyme activity was determined using the FRET-based Z-Lyte kinase inhibition assay. The data are the means from 3 independent experiments.

FGFR3 = molecular target: T2, FGFR3 (Homo sapiens, UniProt P22607); assay: as above; type: biochemical; settings: means from 3 independent experiments; read-out: Isolate Enzyme Inhibition IC50, FGFR3
T2 construct: purchased Invitrogen
Method: as §1, §2

FGFR1 = molecular target: T3, FGFR1 (Homo sapiens, UniProt P11362); assay: as above; type: biochemical; settings: means from 3 independent experiments; read-out: Isolate Enzyme Inhibition IC50, FGFR1
T3 construct: purchased Invitrogen
Method: as §1, §2

[1] = tested on: FGFR1 in H520 cells (phospho-ERK1/2); assay: Drug washout Western blot assay, H520 cells; type: cell-based; settings: H520; 30 min exposure, 100 nM, with and without washout
[2] = tested on: FGFR3 in SW780 cells (phospho-ERK1/2); assay: Drug washout Western blot assay, SW780 cells; type: cell-based; settings: SW780; 30 min exposure, 100 nM, with and without washout
SUM52 cells = assay: Oxic and anoxic anti-proliferative activity of the prodrugs; settings: for Hypoxic Cytotoxicity Ratio (HCR), SUM52: ratio of oxic and anoxic IC50
[3] = read-out: Cellular Anti-proliferative IC50, SUM52, Anoxic, 4 hours of anoxia, remainder of assay oxic
[4] = read-out: Cellular Anti-proliferative IC50, SUM52, Oxic, oxic conditions

T1 sequence (P21802 22-821): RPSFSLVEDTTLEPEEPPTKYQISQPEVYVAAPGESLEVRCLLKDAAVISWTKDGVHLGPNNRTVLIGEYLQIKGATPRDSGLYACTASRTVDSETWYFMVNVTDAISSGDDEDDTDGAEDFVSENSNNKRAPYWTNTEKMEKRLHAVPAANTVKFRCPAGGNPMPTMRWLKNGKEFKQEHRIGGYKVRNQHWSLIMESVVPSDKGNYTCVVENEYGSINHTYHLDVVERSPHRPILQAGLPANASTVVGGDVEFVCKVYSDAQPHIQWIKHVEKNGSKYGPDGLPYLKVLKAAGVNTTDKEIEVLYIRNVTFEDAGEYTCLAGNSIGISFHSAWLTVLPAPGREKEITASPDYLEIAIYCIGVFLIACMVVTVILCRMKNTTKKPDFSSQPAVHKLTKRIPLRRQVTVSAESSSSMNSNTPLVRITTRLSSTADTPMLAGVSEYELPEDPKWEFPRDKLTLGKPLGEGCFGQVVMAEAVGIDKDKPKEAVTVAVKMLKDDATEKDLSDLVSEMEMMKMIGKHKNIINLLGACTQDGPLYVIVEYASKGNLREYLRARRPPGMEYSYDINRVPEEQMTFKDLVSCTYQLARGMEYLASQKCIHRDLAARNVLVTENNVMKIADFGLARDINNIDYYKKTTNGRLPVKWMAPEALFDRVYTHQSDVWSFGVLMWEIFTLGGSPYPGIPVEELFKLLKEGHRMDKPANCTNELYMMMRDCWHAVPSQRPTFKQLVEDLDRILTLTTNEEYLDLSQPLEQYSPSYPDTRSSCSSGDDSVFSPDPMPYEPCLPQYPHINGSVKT
T2 sequence (P22607 23-806): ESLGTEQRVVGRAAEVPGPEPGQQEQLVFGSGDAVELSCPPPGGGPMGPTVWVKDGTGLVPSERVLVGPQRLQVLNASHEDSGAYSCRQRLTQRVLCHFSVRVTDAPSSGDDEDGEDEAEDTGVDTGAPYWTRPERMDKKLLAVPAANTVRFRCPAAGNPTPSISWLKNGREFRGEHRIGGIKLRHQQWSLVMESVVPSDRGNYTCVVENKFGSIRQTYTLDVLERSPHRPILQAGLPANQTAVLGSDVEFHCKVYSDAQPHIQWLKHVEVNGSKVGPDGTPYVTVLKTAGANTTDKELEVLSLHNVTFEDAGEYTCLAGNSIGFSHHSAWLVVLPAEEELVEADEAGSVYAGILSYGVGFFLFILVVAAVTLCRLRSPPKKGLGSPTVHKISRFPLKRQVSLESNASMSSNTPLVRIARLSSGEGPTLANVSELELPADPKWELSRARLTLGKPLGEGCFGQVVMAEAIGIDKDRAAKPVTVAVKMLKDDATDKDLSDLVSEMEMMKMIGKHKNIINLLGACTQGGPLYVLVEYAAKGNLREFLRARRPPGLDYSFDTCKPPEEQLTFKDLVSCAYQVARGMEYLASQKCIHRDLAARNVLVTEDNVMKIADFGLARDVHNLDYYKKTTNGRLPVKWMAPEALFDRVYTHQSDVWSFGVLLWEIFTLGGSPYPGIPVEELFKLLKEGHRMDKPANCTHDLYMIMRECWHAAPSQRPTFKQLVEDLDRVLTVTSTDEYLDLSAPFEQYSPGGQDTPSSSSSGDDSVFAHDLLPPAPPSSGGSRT
T3 sequence (P11362 22-822): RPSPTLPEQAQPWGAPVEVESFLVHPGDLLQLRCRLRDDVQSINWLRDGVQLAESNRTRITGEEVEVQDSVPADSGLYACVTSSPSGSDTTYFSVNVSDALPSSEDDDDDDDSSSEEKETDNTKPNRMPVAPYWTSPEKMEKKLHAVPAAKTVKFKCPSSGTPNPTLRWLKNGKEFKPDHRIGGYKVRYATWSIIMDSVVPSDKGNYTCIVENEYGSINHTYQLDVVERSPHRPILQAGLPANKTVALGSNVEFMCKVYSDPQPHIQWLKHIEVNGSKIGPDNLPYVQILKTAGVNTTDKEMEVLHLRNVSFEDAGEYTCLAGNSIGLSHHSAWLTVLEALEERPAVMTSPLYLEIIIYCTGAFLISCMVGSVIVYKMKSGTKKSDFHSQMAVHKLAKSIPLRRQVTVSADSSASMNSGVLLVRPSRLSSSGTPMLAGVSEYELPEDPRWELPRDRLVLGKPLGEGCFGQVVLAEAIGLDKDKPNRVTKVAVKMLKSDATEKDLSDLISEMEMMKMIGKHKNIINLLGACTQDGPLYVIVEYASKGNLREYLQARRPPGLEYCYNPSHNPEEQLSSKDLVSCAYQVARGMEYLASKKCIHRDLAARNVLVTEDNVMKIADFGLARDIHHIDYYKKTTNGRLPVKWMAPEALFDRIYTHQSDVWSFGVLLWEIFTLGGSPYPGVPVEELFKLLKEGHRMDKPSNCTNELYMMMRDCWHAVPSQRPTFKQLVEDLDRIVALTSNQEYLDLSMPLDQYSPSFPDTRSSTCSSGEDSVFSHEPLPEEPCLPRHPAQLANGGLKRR

Row | SMILES | IC50 (FGFR2) [nM] | IC50 (FGFR3) [nM] | IC50 (FGFR1) [nM] | reversible or irreversible inhibition of FGFR1 in cells [1] | reversible or irreversible inhibition of FGFR3 in cells [2] | Hypoxic Cytotoxicity Ratio (HCR), SUM52 (SUM52 cells) | IC50 (SUM52 cells; [3]) [nM] | IC50 (SUM52 cells; [4]) [nM]
1 | CNc1ncc2c(n1)N(C1CCN(C(=O)/C=C/CN3CCCCC3)CC1)C(=O)N(c1c(Cl)c(OC)cc(OC)c1Cl)C2 [Compound 124, (E)-3-(2,6-dichloro-3,5-dimethoxyphenyl)-7-(methylamino)-1-(1-(4-(piperidin-1-yl)but-2-enoyl)piperidin-4-yl)-3,4-dihydropyrimido[4,5-d]pyrimidin-2(1H)-one] | 1.9 | 12 | 0.8 | – | – | – | – | –
2 | CNc1ncc2c(n1)N(Cc1cccc(NC(=O)/C=C/CN(C)C)c1)C(=O)N(c1c(Cl)c(OC)cc(OC)c1Cl)C2 [Compound 127, (E)-N-(3-((3-(2,6-dichloro-3,5-dimethoxyphenyl)-7-(methylamino)-2-oxo-3,4-dihydropyrimido[4,5-d]pyrimidin-1(2H)-yl)methyl)phenyl)-4-(dimethylamino)but-2-enamide] | 2.7 | 35 | 1 | – | – | – | – | –
3 | CNc1ncc2cc(-c3c(Cl)c(OC)cc(OC)c3Cl)c(=O)n(C3CCN(C(=O)/C=C/CN(C)C)CC3)c2n1 [Compound 132, (E)-6-(2,6-dichloro-3,5-dimethoxyphenyl)-8-(1-(4-(dimethylamino)but-2-enoyl)piperidin-4-yl)-2-(methylamino)pyrido[2,3-d]pyrimidin-7(8H)-one] | 1 | 4.9 | 0.7 | – | – | – | – | –
4 | COc1cc(OC)c(Cl)c(-c2cc3cnc(NC4CCOC4)nc3n(C3CCN(C(=O)/C=C/CN(C)C)CC3)c2=O)c1Cl (centres unmarked) [Compound 134, (E)-6-(2,6-dichloro-3,5-dimethoxyphenyl)-8-(1-(4-(dimethylamino)but-2-enoyl)piperidin-4-yl)-2-((tetrahydrofuran-3-yl)amino)pyrido[2,3-d]pyrimidin-7(8H)-one] | 1.6 | 11 | 1.1 | – | – | – | – | –
5 | COc1cc(OC)c(Cl)c(-c2cc3cnc(NC4CCOCC4)nc3n(C3CCN(C(=O)/C=C/CN(C)C)CC3)c2=O)c1Cl [Compound 135, (E)-6-(2,6-dichloro-3,5-dimethoxyphenyl)-8-(1-(4-(dimethylamino)but-2-enoyl)piperidin-4-yl)-2-((tetrahydro-2H-pyran-4-yl)amino)pyrido[2,3-d]pyrimidin-7(8H)-one] | 1.2 | 6.3 | 0.9 | – | – | – | – | –
6 | COc1cc(OC)c(Cl)c(-c2cc3cnc(NC4CCCCC4)nc3n(C3CCN(C(=O)/C=C/CN(C)C)CC3)c2=O)c1Cl [Compound 136, (E)-2-(cyclohexylamino)-6-(2,6-dichloro-3,5-dimethoxyphenyl)-8-(1-(4-(dimethylamino)but-2-enoyl)piperidin-4-yl)pyrido[2,3-d]pyrimidin-7(8H)-one] | 1.3 | 6.7 | 1.1 | – | – | – | – | –
7 | COc1cc(OC)c(Cl)c(-c2cc3cnc(Nc4ccccc4)nc3n(C3CCN(C(=O)/C=C/CN(C)C)CC3)c2=O)c1Cl [Compound 138, (E)-6-(2,6-dichloro-3,5-dimethoxyphenyl)-8-(1-(4-(dimethylamino)but-2-enoyl)piperidin-4-yl)-2-(phenylamino)pyrido[2,3-d]pyrimidin-7(8H)-one] | 1.1 | 5.1 | 1.1 | potent irreversible inhibitors | – | – | – | –
8 | COc1cc(OC)c(Cl)c(-c2cc3cnc(Nc4ccc(F)cc4)nc3n(C3CCN(C(=O)/C=C/CN(C)C)CC3)c2=O)c1Cl [Compound 139, (E)-6-(2,6-dichloro-3,5-dimethoxyphenyl)-8-(1-(4-(dimethylamino)but-2-enoyl)piperidin-4-yl)-2-((4-fluorophenyl)amino)pyrido[2,3-d]pyrimidin-7(8H)-one] | 1.1 | 6 | 0.3 | – | – | – | – | –
9 | COc1cccc(Nc2ncc3cc(-c4c(Cl)c(OC)cc(OC)c4Cl)c(=O)n(C4CCN(C(=O)/C=C/CN(C)C)CC4)c3n2)c1 [Compound 140, (E)-6-(2,6-dichloro-3,5-dimethoxyphenyl)-8-(1-(4-(dimethylamino)but-2-enoyl)piperidin-4-yl)-2-((3-methoxyphenyl)amino)pyrido[2,3-d]pyrimidin-7(8H)-one] | 0.9 | 4.9 | 0.7 | – | – | – | – | –
10 | COc1cc(Nc2ncc3cc(-c4c(Cl)c(OC)cc(OC)c4Cl)c(=O)n(C4CCN(C(=O)/C=C/CN(C)C)CC4)c3n2)ccc1F [Compound 141, (E)-6-(2,6-dichloro-3,5-dimethoxyphenyl)-8-(1-(4-(dimethylamino)but-2-enoyl)piperidin-4-yl)-2-((4-fluoro-3-methoxyphenyl)amino)pyrido[2,3-d]pyrimidin-7(8H)-one] | 1.5 | 5.5 | 0.7 | – | – | – | – | –
11 | CNc1ncc2cc(-c3c(Cl)c(OC)cc(OC)c3Cl)c(=O)n(Cc3cccc(NC(=O)/C=C/CN(C)C)c3)c2n1 [Compound 143, (E)-N-(3-((6-(2,6-dichloro-3,5-dimethoxyphenyl)-2-(methylamino)-7-oxopyrido[2,3-d]pyrimidin-8(7H)-yl)methyl)phenyl)-4-(dimethylamino)but-2-enamide] | 0.9 | 8 | 0.8 | – | – | – | – | –
12 | CCNc1ncc2cc(-c3c(Cl)c(OC)cc(OC)c3Cl)c(=O)n(Cc3cccc(NC(=O)/C=C/CN(C)C)c3)c2n1 [Compound 144, (E)-N-(3-((6-(2,6-dichloro-3,5-dimethoxyphenyl)-2-(ethylamino)-7-oxopyrido[2,3-d]pyrimidin-8(7H)-yl)methyl)phenyl)-4-(dimethylamino)but-2-enamide] | 1.6 | 6.7 | 0.9 | – | – | – | – | –
13 | COc1cc(OC)c(Cl)c(-c2cc3cnc(NC(C)C)nc3n(Cc3cccc(NC(=O)/C=C/CN(C)C)c3)c2=O)c1Cl [Compound 145, (E)-N-(3-((6-(2,6-dichloro-3,5-dimethoxyphenyl)-2-(isopropylamino)-7-oxopyrido[2,3-d]pyrimidin-8(7H)-yl)methyl)phenyl)-4-(dimethylamino)but-2-enamide] | 2.5 | 6.9 | 1.3 | – | – | – | – | –
14 | CNc1ncc2cc(-c3c(Cl)c(OC)cc(OC)c3Cl)c(=O)n(C(C)c3cccc(NC(=O)/C=C/CN(C)C)c3)c2n1 (centres unmarked) [Compound 146, (E)-N-(3-(1-(6-(2,6-dichloro-3,5-dimethoxyphenyl)-2-(methylamino)-7-oxopyrido[2,3-d]pyrimidin-8(7H)-yl)ethyl)phenyl)-4-(dimethylamino)but-2-enamide] | 1.2 | 6.2 | 1.2 | – | – | – | – | –
15 | C=CC(=O)N1CCC(N2C(=O)N(c3c(Cl)c(OC)cc(OC)c3Cl)Cc3cnc(NC)nc32)CC1 [Compound 156, 1-(1-acryloylpiperidin-4-yl)-3-(2,6-dichloro-3,5-dimethoxyphenyl)-7-(methylamino)-3,4-dihydropyrimido[4,5-d]pyrimidin-2(1H)-one] | – | – | – | – | potent reversible inhibitors | – | – | –
16 | COc1ccc(Nc2ncc3c(n2)N(C2CCN(C(=O)/C=C/C[N+](C)(C)Cc4c([N+](=O)[O-])ncn4C)CC2)C(=O)N(c2c(Cl)c(OC)cc(OC)c2Cl)C3)cc1.[Br-] [Compound 206, (E)-4-(4-(3-(2,6-dichloro-3,5-dimethoxyphenyl)-7-((4-methoxyphenyl)amino)-2-oxo-3,4-dihydropyrimido[4,5-d]pyrimidin-1(2H)-yl)piperidin-1-yl)-N,N-dimethyl-N-((1-methyl-4-nitro-1H-imidazol-5-yl)methyl)-4-oxobut-2-en-1-aminium bromide] | – | – | – | – | – | 8 | 1 | 8
17 | COc1cc(OC)c(Br)c(N2Cc3cnc(NC(C)C)nc3N(C3CCN(C(=O)/C=C/C[N+](C)(C)Cc4c([N+](=O)[O-])ncn4C)CC3)C2=O)c1Br.[Br-] [Compound 207, (E)-4-(4-(3-(2,6-dibromo-3,5-dimethoxyphenyl)-7-(isopropylamino)-2-oxo-3,4-dihydropyrimido[4,5-d]pyrimidin-1(2H)-yl)piperidin-1-yl)-N,N-dimethyl-N-((1-methyl-4-nitro-1H-imidazol-5-yl)methyl)-4-oxobut-2-en-1-aminium bromide] | – | – | – | – | – | 53 | 8 | 404
18 | COc1cc(OC)c(Br)c(-c2cc3cnc(NC(C)C)nc3n(C3CCN(C(=O)/C=C/C[N+](C)(C)Cc4c([N+](=O)[O-])ncn4C)CC3)c2=O)c1Br.[Br-] [Compound 210, (E)-4-(4-(6-(2,6-dibromo-3,5-dimethoxyphenyl)-2-(isopropylamino)-7-oxopyrido[2,3-d]pyrimidin-8(7H)-yl)piperidin-1-yl)-N,N-dimethyl-N-((1-methyl-4-nitro-1H-imidazol-5-yl)methyl)-4-oxobut-2-en-1-aminium bromide] | – | – | – | – | – | 9 | 4 | 35
19 | COc1cc(OC)c(Br)c(-c2cc3cnc(Nc4ccccc4)nc3n(C3CCN(C(=O)/C=C/C[N+](C)(C)Cc4c([N+](=O)[O-])ncn4C)CC3)c2=O)c1Br.[Br-] [Compound 212, (E)-4-(4-(6-(2,6-dibromo-3,5-dimethoxyphenyl)-7-oxo-2-(phenylamino)pyrido[2,3-d]pyrimidin-8(7H)-yl)piperidin-1-yl)-N,N-dimethyl-N-((1-methyl-4-nitro-1H-imidazol-5-yl)methyl)-4-oxobut-2-en-1-aminium bromide] | – | – | – | – | – | 8 | 2 | 13
